Measured values: US10112929B2, “Lactams as inhibitors of rock” (BRISTOL-MYERS SQUIBB COMPANY, priority 2015, dated 2018)
pIC50: −log10 of the molar value.

target: ROCK2 (Homo sapiens (Human), UniProt O75116)
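Note: rho kinase enzyme reaction halted with EDTA, phospho- and non-phospho peptide separated for read-out, kinase activity inhibition derived across a dose-response series, DMSO under 2%.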

Chain of ROCK2 (O75116 whole entry, species assumed): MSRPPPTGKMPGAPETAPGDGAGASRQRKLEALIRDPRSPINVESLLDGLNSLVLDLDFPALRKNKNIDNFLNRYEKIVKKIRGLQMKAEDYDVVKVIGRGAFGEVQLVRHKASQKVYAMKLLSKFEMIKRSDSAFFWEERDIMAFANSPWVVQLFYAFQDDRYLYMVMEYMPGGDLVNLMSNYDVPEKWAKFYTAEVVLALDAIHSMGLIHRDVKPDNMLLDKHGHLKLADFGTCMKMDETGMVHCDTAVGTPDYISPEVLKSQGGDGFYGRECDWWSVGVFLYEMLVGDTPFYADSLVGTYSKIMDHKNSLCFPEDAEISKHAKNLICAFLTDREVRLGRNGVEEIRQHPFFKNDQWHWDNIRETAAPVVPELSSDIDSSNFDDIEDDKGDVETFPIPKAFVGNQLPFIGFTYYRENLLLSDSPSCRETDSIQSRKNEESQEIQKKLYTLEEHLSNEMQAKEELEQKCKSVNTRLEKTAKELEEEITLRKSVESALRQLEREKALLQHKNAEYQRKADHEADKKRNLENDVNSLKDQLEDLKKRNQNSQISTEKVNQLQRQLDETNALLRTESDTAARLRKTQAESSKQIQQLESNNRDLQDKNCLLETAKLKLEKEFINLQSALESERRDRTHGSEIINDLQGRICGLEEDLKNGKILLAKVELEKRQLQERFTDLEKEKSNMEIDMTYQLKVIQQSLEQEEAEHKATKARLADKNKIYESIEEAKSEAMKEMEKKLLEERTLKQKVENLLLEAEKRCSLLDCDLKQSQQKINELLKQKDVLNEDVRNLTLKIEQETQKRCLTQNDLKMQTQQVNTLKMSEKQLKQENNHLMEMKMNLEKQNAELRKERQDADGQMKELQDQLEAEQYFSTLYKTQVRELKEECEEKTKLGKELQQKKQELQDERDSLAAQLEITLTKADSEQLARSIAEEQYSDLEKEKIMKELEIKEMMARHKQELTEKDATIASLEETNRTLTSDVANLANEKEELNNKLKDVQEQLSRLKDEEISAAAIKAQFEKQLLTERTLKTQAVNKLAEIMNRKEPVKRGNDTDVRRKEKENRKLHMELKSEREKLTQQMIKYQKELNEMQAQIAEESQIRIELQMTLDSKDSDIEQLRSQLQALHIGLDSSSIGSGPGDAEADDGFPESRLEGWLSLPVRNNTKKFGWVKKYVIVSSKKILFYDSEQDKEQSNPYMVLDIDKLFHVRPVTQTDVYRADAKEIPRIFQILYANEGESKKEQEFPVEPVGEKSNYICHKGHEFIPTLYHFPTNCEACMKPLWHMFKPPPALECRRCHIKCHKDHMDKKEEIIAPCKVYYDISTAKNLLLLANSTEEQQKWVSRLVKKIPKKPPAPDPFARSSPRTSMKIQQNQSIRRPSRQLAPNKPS

Row | SMILES | pIC50
1 | COc1cccc(NC2CCN(c3ccc(-c4cn[nH]c4)c(OC)n3)C2=O)c1 (single isomer, unassigned) [Example 197, 1-(6-methoxy-5-(1H-pyrazol-4-yl)pyridin-2-yl)-3-((3-methoxyphenyl)amino) pyrrolidin-2-one] | > 8.00
2 | COc1cc(F)cc(NC2CCN(c3ccc(-c4cn[nH]c4)c(OC)n3)C2=O)c1 (single isomer, unassigned) [Example 199, 3-((3-fluoro-5-methoxyphenyl)amino)-1-(6-methoxy-5-(1H-pyrazol-4-yl)pyridin-2 yl)pyrrolidin-2-one] | > 8.00
3 | CCOc1cccc(NC2CCN(c3ccc(-c4cn[nH]c4)c(OC)n3)C2=O)c1 (single isomer, unassigned) [Example 219, 3-((3-ethoxyphenyl)amino)-1-(6-methoxy-5-(1H-pyrazol-4-yl)pyridin-2-yl)pyrrolidin-2-one] | > 8.00
4 | CCOc1cc(N2CCC(Nc3ccc(F)c(OC)c3)C2=O)ccc1-c1cn[nH]c1 (single isomer, unassigned) [Example 39, 1-(3-ethoxy-4-(1H-pyrazol-4-yl)phenyl)-3-((4-fluoro-3-methoxyphenyl)amino)pyrrolidin-2-one] | 7.00 to 8.00
5 | COc1cccc(NC2CCN(c3ncc(-c4cn[nH]c4)cc3F)C2=O)c1 (single isomer, unassigned) [Example 358, 1-(3-fluoro-5-(1H-pyrazol-4-yl)pyridin-2-yl)-3-((3-methoxyphenyl)amino) pyrrolidin-2-one] | 5.66 to 7.00
6 | COc1cccc(NC2CCN(c3ccc(-c4ccnc(N)n4)cc3)C2=O)c1 (single isomer, unassigned) [Example 79, 1-(4-(2-aminopyrimidin-4-yl)phenyl)-3-((3-methoxyphenyl)amino)pyrrolidin-2-one] | 7.00 to 8.00
7 | CCc1nc(N2CCC(Nc3cccc(OC)c3)C2=O)ccc1-c1cn[nH]c1 (single isomer, unassigned) [Example 314, 1-(6-ethyl-5-(1H-pyrazol-4-yl)pyridin-2-yl)-3-((3-methoxyphenyl)amino) pyrrolidin-2-one] | > 8.00
8 | COc1ccc(F)c(NC2CCN(c3ccc(-c4cn[nH]c4)cn3)C2=O)c1 (single isomer, unassigned) [Example 304, 1-(5-(1H-pyrazol-4-yl)pyridin-2-yl)-3-((2-fluoro-5-methoxyphenyl)amino)pyrrolidin-2-one] | 7.00 to 8.00
9 | O=C1C(Nc2cccc(OC(F)F)c2)CCN1c1ccc(-c2cn[nH]c2)c(F)c1 (single isomer, unassigned) [Example 356, 3-((3-(difluoromethoxy)phenyl)amino)-1-(3-fluoro-4-(1H-pyrazol-4-yl)phenyl) pyrrolidin-2-one] | 7.00 to 8.00
10 | CCc1cc(N2CCC(Nc3cccc(OC)c3)C2=O)ncc1-c1cn[nH]c1 (single isomer, unassigned) [Example 204, 1-(4-ethyl-5-(1H-pyrazol-4-yl)pyridin-2-yl)-3-((3-methoxyphenyl)amino) pyrrolidin-2-one] | 5.66 to 7.00
11 | Cc1nc(N2CCC(Nc3cccc(OC(F)F)c3)C2=O)ccc1-c1cn[nH]c1 (single isomer, unassigned) [Example 202, 3-((3-(difluoromethoxy)phenyl)amino)-1-(6-methyl-5-(1H-pyrazol-4-yl)pyridin-2-yl)pyrrolidin-2-one] | 7.00 to 8.00
12 | COc1cc(F)cc(NC2CCN(c3ccc(-c4cn[nH]c4)c(OC)c3)C2=O)c1 (single isomer, unassigned) [Example 138, 3-((3-fluoro-5-methoxyphenyl)amino)-1-(3-methoxy-4-(1H-pyrazol-4-yl)phenyl) pyrrolidin-2-one] | > 8.00
13 | COc1cc(NC2CCN(c3ccc(-c4cn[nH]c4)c(C#N)c3)C2=O)ccc1F (single isomer, unassigned) [Example 380, 5-(3-((4-fluoro-3-methoxyphenyl)amino)-2-oxopyrrolidin-1-yl)-2-(1H-pyrazol-4-yl)benzonitrile] | 5.66 to 7.00
14 | COc1cc(NC2CCN(c3ccc(-c4cn[nH]c4)c(C(F)(F)F)c3)C2=O)ccc1F (single isomer, unassigned) [Example 372, 1-(4-(1H-pyrazol-4-yl)-3-(trifluoromethyl)phenyl)-3-((4-fluoro-3-methoxyphenyl)amino)pyrrolidin-2-one] | 5.66 to 7.00
15 | COc1cc(NC2CCN(c3ccc(-c4cn[nH]c4)c(F)c3)C2=O)ccc1F (single isomer, unassigned) [Example 333, 3-((4-fluoro-3-methoxyphenyl)amino)-1-(3-fluoro-4-(1H-pyrazol-4-yl)phenyl) pyrrolidin-2-one] | > 8.00
16 | CCc1cc(N2CCC(Nc3ccc(F)c(OC)c3)C2=O)ccc1-c1cn[nH]c1 (single isomer, unassigned) [Example 242, 1-(3-ethyl-4-(1H-pyrazol-4-yl)phenyl)-3-((4-fluoro-3-methoxyphenyl)amino) pyrrolidin-2-one] | 7.00 to 8.00

More lines, now with the values ahead:

Row | pIC50 | SMILES
17 | 5.66 to 7.00 | COc1cc(NC2CCN(c3ccc(-c4cn[nH]c4)cc3)C2=O)cc(OC)c1 (single isomer, unassigned) [Example 22, 1-(4-(1H-pyrazol-4-yl)phenyl)-3-((3,5-dimethoxyphenyl)amino)pyrrolidin-2-one]
18 | > 8.00 | COc1cc(F)cc(NC2CCN(c3ccc(-c4cn[nH]c4)cc3)C2=O)c1 (single isomer, unassigned) [Example 27, 1-(4-(1H-pyrazol-4-yl)phenyl)-3-((3-fluoro-5-methoxyphenyl)amino)pyrrolidin-2-one]
19 | 7.00 to 8.00 | COc1cccc(NC2CCN(c3ccc(-c4cn[nH]c4)cc3)C2=O)c1C (single isomer, unassigned) [Example 326, 1-(4-(1H-pyrazol-4-yl)phenyl)-3-((3-methoxy-2-methylphenyl)amino) pyrrolidin-2-one]
20 | 7.00 to 8.00 | COc1ccc(F)c(NC2CCN(c3ccc(-c4cn[nH]c4)cc3)C2=O)c1 (single isomer, unassigned) [Example 240, 1-(4-(1H-pyrazol-4-yl)phenyl)-3-((2-fluoro-5-methoxyphenyl)amino)pyrrolidin-2-one]
21 | 5.66 to 7.00 | COc1cc(F)ccc1NC1CCN(c2ccc(-c3cn[nH]c3)c(OC)c2)C1=O (single isomer, unassigned) [Example 144, 3-((4-fluoro-2-methoxyphenyl)amino)-1-(3-methoxy-4-(1H-pyrazol-4-yl)phenyl) pyrrolidin-2-one]
22 | 5.66 to 7.00 | COc1c(F)cccc1NC1CCN(c2ccc(-c3cn[nH]c3)cc2F)C1=O (single isomer, unassigned) [Example 343, 3-((3-fluoro-2-methoxyphenyl)amino)-1-(2-fluoro-4-(1H-pyrazol-4-yl)phenyl) pyrrolidin-2-one]
23 | 5.66 to 7.00 | COc1ccc(NC2CCN(c3ccc(-c4cn[nH]c4)c(OC)c3)C2=O)c(F)c1 (single isomer, unassigned) [Example 153, 3-((2-fluoro-4-methoxyphenyl)amino)-1-(3-methoxy-4-(1H-pyrazol-4-yl)phenyl) pyrrolidin-2-one]
24 | 5.66 to 7.00 | COc1ccc(NC2CCN(c3ccc(-c4cn[nH]c4)cc3)C2=O)c(F)c1 (single isomer, unassigned) [Example 20, 1-(4-(1H-pyrazol-4-yl)phenyl)-3-((2-fluoro-4-methoxyphenyl)amino)pyrrolidin-2-one]
